Measured values taken from BindingDB's records for doi:10.1021/jm0490641 (Boehringer Ingelheim Pharma, 2005).

Target: Calcitonin gene-related peptide receptor (Callithrix jacchus)
Assay: Affinity against calcitonin gene related peptide receptor (1 uM) in marmoset tissue homogenates using [125I]CGRP as radioligand after 180 minutes of incubation at pH 7.40
Conditions: pH 7.4

## NCCCC[C@@H](NC(=O)[C@H](Cc1cc(Br)c(O)c(Br)c1)NC(=O)N1CCC(n2c(=O)[nH]c3ccccc32)CC1)C(=O)N1CCN(c2ccncc2)CC1 [4-(2-Oxo-2,3-dihydro-benzoimidazol-1-yl)-piperidine-1-carboxylic acid [(S)-1-[(R)-5-amino-1-(4-pyridin-4-yl-piperazine-1-carbonyl)-pentylcarbamoyl]-2-(3,5-dibromo-4-hydroxy-phenyl)-ethyl]-amide]
  IC50: 2.7 nM
